PubChem BioAssay (NCI)
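Each compound was tested at five concentrations against cells in 96-well plates for 48 hours. TGI marks complete inhibition of growth.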

What was measured:
Experiment in all cases: NCI tumour cell line growth inhibition, 48 h
[1] = tested on: CAKI-1 renal
[2] = tested on: DU-145 prostate
[3] = tested on: HCT-15 colon
[4] = tested on: HOP-62 NSCLC
[5] = tested on: HS 578T breast
[6] = tested on: IGROV1 ovarian
[7] = tested on: NCI-H460 lung
[8] = tested on: NCI/ADR-RES ovarian
[9] = tested on: OVCAR-4 ovarian
[10] = tested on: OVCAR-5 ovarian
[11] = tested on: SF-539 CNS
[12] = tested on: SK-MEL-5 melanoma
[13] = tested on: SN12C renal
[14] = tested on: SNB-19 CNS
[15] = tested on: UACC-62 melanoma

SMILES	TGI [1]	TGI [2]	TGI [3]	TGI [4]	TGI [5]	TGI [6]	TGI [7]	TGI [8]	TGI [9]	TGI [10]	TGI [11]	TGI [12]	TGI [13]	TGI [14]	TGI [15]
C=C(C)[C@H]1C=C[C@@H](OC(=O)c2cccnc2)[C@@]23CO[C@@](C)([C@H](OC(=O)c4cccnc4)[C@@]4(OC(C)=O)C[C@H](C)[C@H](OCCC)[C@@H]4[C@H]2OC(C)=O)[C@H]13	> 15 µM	> 15 µM	> 15 µM	> 15 µM	> 15 µM	> 15 µM	> 15 µM	> 15 µM	> 15 µM	> 15 µM	> 15 µM	> 15 µM	> 15 µM	> 15 µM	> 15 µM
CC1=C/C(=N\O)C(C(O)(C(F)(F)F)C(F)(F)F)C(C)(C)C1 (stereo not given)	> 10 µM	> 10 µM	> 10 µM	> 10 µM	> 10 µM	> 10 µM	> 10 µM	> 10 µM	> 10 µM	> 10 µM	> 10 µM	> 10 µM	> 10 µM	> 10 µM	> 10 µM
O=P1(Oc2ccccc2)N(CCCl)CCN1c1ccccc1 (stereo not given)	> 100 µM	> 100 µM	> 100 µM	> 100 µM	> 100 µM	> 100 µM	> 100 µM	> 100 µM	> 100 µM	> 100 µM	> 100 µM	> 100 µM	> 100 µM	> 100 µM	> 100 µM
CCC[C@H](NS(=O)c1ccc(C)cc1)C(C(=O)OCC)=C(c1ccccc1)c1ccccc1 (stereo not given in full)	35.6 µM	36.7 µM	> 100 µM	36.4 µM	71.2 µM	75.8 µM	36.5 µM	> 100 µM	49 µM	43.4 µM	48.5 µM	44.4 µM	41.7 µM	> 100 µM	31.5 µM
O=c1ccn(C2OC(CO)C(O)C2[Se]c2ccccc2)c(=O)[nH]1 (stereo not given)	> 100 µM	> 100 µM	> 100 µM	> 100 µM	> 100 µM	> 100 µM	> 100 µM	> 100 µM	> 100 µM	> 100 µM	> 100 µM	> 100 µM	> 100 µM	> 100 µM	7.31 µM
CN(C)P(=O)(Oc1ccc(CC(NC(=O)OCc2ccccc2)C(=O)OCc2ccccc2)cc1)N(C)C (stereo not given)	32.8 µM	29.2 µM	33 µM	31.7 µM	67.5 µM	32.9 µM	48.8 µM	36.2 µM	39.1 µM	38.6 µM	39.7 µM	38.1 µM	31.8 µM	38.6 µM	31.5 µM
CCCCCCOc1ccc(C(=O)NO)cc1	19.2 µM	18.2 µM	16.1 µM	38.4 µM	67.2 µM	23.2 µM	20.8 µM	18.5 µM	> 66.3 µM	40.4 µM	45.7 µM	> 58.2 µM	19.5 µM	54.8 µM	20.6 µM
CCOC(=O)CSc1nnc2cc(CN3CCCC3)c(-c3ccc(Cl)cc3)nn12	> 100 µM	> 100 µM	> 100 µM	> 100 µM	> 100 µM	> 100 µM	> 100 µM	> 100 µM	> 100 µM	> 100 µM	> 100 µM	> 100 µM	> 100 µM	> 100 µM	> 100 µM
COc1cc2cccc(N)c2cc1OC	> 100 µM	> 100 µM	> 100 µM	> 100 µM	> 100 µM	> 100 µM	> 100 µM	> 100 µM	> 100 µM	> 100 µM	> 100 µM	> 100 µM	> 100 µM	> 100 µM	> 100 µM
CCc1n[nH]c(=O)n1/N=C/c1ccc(C)cc1	> 100 µM	> 100 µM	> 100 µM	> 100 µM	44.3 µM	> 100 µM	> 100 µM	> 100 µM	> 100 µM	> 100 µM	> 100 µM	> 100 µM	> 100 µM	> 100 µM	> 100 µM
CC(=O)Oc1ccccc1/C=C/C(=O)/C=C/c1ccccc1OC(C)=O	10.4 µM	9.59 µM	9.34 µM	5.32 µM	> 51.9 µM	4.52 µM	6.48 µM	7.39 µM	10.2 µM	4.35 µM	3.33 µM	3.45 µM	4.07 µM	6.53 µM	3.48 µM
CCOC(=O)C(C)NC(=O)C(C)NC(=O)C(C)NC(=O)C(C)NC(=O)C(C)NC(=O)OCc1ccccc1 (stereo not given)	> 100 µM	> 100 µM	> 100 µM	> 100 µM	> 100 µM	> 100 µM	> 100 µM	> 100 µM	> 100 µM	> 100 µM	> 100 µM	> 100 µM	> 100 µM	> 100 µM	> 100 µM
CCOC(=O)[C@@]12C[C@](/C=C/OC)(O[Si](C)(C)C)[C@@]13c1cc(OC)c(OC)cc1CCN3C(=O)C2O (stereo not given in full)	> 100 µM	> 100 µM	> 100 µM	> 100 µM	> 100 µM	> 100 µM	> 100 µM	> 100 µM	> 100 µM	> 100 µM	> 100 µM	> 100 µM	> 100 µM	> 100 µM	> 100 µM
C=CCSC1=N/C(=C\c2cccs2)C(=O)N1CC=C	> 100 µM	> 100 µM	> 100 µM	> 100 µM	> 100 µM	> 100 µM	> 100 µM	> 100 µM	> 100 µM	> 100 µM	> 100 µM	> 100 µM	> 100 µM	> 100 µM	> 100 µM
Clc1cc(Cl)cc(C2ON=C(c3ccccc3)N2C23CC4CC(CC(C4)C2)C3)c1 (stereo not given)	> 10 µM	> 10 µM	> 10 µM	> 10 µM	> 10 µM	> 10 µM	> 10 µM	> 10 µM	> 10 µM	> 10 µM	> 10 µM	> 10 µM	> 10 µM	> 10 µM	> 10 µM
C=C[C@@H]1C[C@]2(C(=O)OC)Cc3nc4ccccc4nc3CC(C(=O)OC)=C2O1	> 100 µM	> 100 µM	> 100 µM	> 100 µM	> 100 µM	> 100 µM	> 100 µM	> 100 µM	> 100 µM	> 100 µM	> 100 µM	> 100 µM	> 100 µM	> 100 µM	> 100 µM
O=c1oc2ccccc2c(O)c1/C=N/C(=S)NCCc1ccccc1	> 100 µM	> 100 µM	> 100 µM	> 100 µM	> 100 µM	> 100 µM	> 70.3 µM	> 100 µM	> 100 µM	> 100 µM	> 71.1 µM	> 100 µM	> 100 µM	> 100 µM	99.4 µM
CCN(CC)c1ccc2cc(C(=O)Nc3ccccc3)c(=N)oc2c1	> 100 µM	> 100 µM	> 100 µM	> 100 µM	> 100 µM	> 100 µM	> 100 µM	> 100 µM	> 100 µM	> 100 µM	> 100 µM	> 100 µM	> 100 µM	> 100 µM	> 100 µM
Cc1nc2c(=O)n(-c3ccccc3)c3ccccc3c2o1	> 100 µM	> 100 µM	> 100 µM	> 100 µM	> 100 µM	> 100 µM	> 100 µM	> 100 µM	> 100 µM	> 100 µM	> 100 µM	> 100 µM	> 100 µM	> 100 µM	> 100 µM
O=C(c1ccccc1)c1ccc(-n2c3ccccc3c3ccc4c(c32)C(=O)C=CC4=O)cc1	4.4 µM	> 40.1 µM	31.3 µM	33.6 µM	> 55.5 µM	37.5 µM	36.2 µM	60.5 µM	31.8 µM	38.1 µM	34.2 µM	43 µM	28.3 µM	36.4 µM	26.7 µM
c1cc2c(c(NC3=NCCO3)c1)CCC2	> 100 µM	> 100 µM	> 100 µM	> 100 µM	> 100 µM	> 100 µM	> 100 µM	> 100 µM	> 100 µM	> 100 µM	> 100 µM	> 100 µM	> 100 µM	> 100 µM	> 100 µM
CCOc1ccc(N/C(Cl)=C(Cl)\C(=C(\Nc2ccc(OCC)cc2)n2nnc3ccccc32)[N+](=O)[O-])cc1	3.49 µM	46.8 µM	7.4 µM	> 100 µM	> 100 µM	5.33 µM	> 59.7 µM	> 100 µM	30.8 µM	27 µM	11.1 µM	24.5 µM	23.3 µM	34.4 µM	34.6 µM
Cc1nnc2sc(NN)nn12	> 100 µM	> 100 µM	> 100 µM	> 100 µM	> 100 µM	> 100 µM	> 100 µM	> 100 µM	> 100 µM	> 100 µM	> 100 µM	> 100 µM	> 100 µM	> 100 µM	> 100 µM
NCCN1C(=O)CN=C(c2ccc(Cl)cc2)c2cc(Cl)ccc21	32 µM	34.8 µM	34.7 µM	31.8 µM	35.8 µM	27.1 µM	34.4 µM	32.8 µM	32.1 µM	30.9 µM	34.1 µM	31.4 µM	62.9 µM	45.6 µM	32.2 µM
